In paper PMC5469273, “Discovery of Novel Small-Molecule Inhibitors of LIM Domain Kinase for Inhibiting HIV-1” (Journal of Virology, 2017):

Legend:
resting CD4 T cells = test: FITC-phalloidin staining of F-actin after SDF-1; conditions: 100 μM pretreatment, FITC-phalloidin flow cytometry
IGF1R = IGF1R (Homo sapiens, UniProt P08069); test: Kinase profiling (Reaction Biology): IGF1R
HIV-1(NL4-3) = test: microbe, parasite or virus in culture; type: cell-based; conditions: Human immunodeficiency virus 1, NL43; pretreated 1 h, HIV-1(NL4-3) 3 h, washed, 48 h; luciferase; read-out: IC50, inhibition of HIV
WEE1 = WEE1 (Homo sapiens, UniProt P30291); test: Kinase profiling (Reaction Biology): WEE1
MEK1 = MEK1 (Homo sapiens, UniProt Q02750); test: Kinase profiling (Reaction Biology): MEK1
Rev-CEM-GFP-Luc cells = conditions: 4 h treatment; all concentrations tested up to 200 μM
BTK = BTK (Homo sapiens, UniProt Q06187); test: Kinase profiling (Reaction Biology): BTK
[1] = test system: HIV DNA-transfected HEK293 cells; type: cell-based, HIV-1; conditions: different concentrations, 48 h
HIV-1(Env) = type: cell-based
RSK1 = RSK1 (Homo sapiens, UniProt Q15418); test: Kinase profiling (Reaction Biology): RSK1
HIV-1(Nef-luciferase) = test: Nef-luciferase-based viral entry assay; type: cell-based; conditions: 100 μM; data not shown
phosphorylation of PAK2 = test: Western blotting for PAK2 phosphorylation in CEM-SS T cells; conditions: 100 μM, time course
Vero cells = conditions: up to 100 μM R10015
HIV-1(VSV G) = type: cell-based; conditions: 100 μM
STK33 = STK33 (Homo sapiens, UniProt Q9BYT3); test: Kinase profiling (Reaction Biology): STK33
CK2a = CK2a (Homo sapiens, UniProt P68400); test: Kinase profiling (Reaction Biology): CK2a
EGFR = EGFR (Homo sapiens, UniProt P00533); test: Kinase profiling (Reaction Biology): EGFR
ROCK2 = ROCK2 (Homo sapiens, UniProt O75116); test: Kinase profiling (Reaction Biology): ROCK2
NEK1 = NEK1 (Homo sapiens, UniProt Q96PY6); test: Kinase profiling (Reaction Biology): NEK1
BRAF = BRAF (Homo sapiens, UniProt P15056); test: Kinase profiling (Reaction Biology): BRAF
Jurkat T cells = test: SDF-1-mediated chemotaxis assay (transwell); conditions: Homo sapiens, 2 h, read-out: IC50, inhibition of Jurkat T cell chemotaxis, SDF-1 40 ng/ml, 2 h, transwell
AKT2 = AKT2 (Homo sapiens, UniProt P31751); test: Kinase profiling (Reaction Biology): AKT2
RET = RET (Homo sapiens, UniProt P07949); test: Kinase profiling (Reaction Biology): RET
TAK1 = TAK1 (Homo sapiens, UniProt O43318); test: Kinase profiling (Reaction Biology): TAK1
RVFV-Luc (MP12) = test: microbe, parasite or virus in culture; type: cell-based; conditions: Rift Valley fever virus, Vero, 24 h, read-out: IC50, inhibition of RVFV
HSV-1 = HSV-1 plaque assay in Vero cells; type: cell-based, herpes simplex virus 1
JNK3 = JNK3 (Homo sapiens, UniProt P53779); test: Kinase profiling (Reaction Biology): JNK3
TLK1 = TLK1 (Homo sapiens, UniProt Q9UKI8); test: Kinase profiling (Reaction Biology): TLK1
EBOV (Zaire) = type: cell-based, Zaire ebolavirus; conditions: HFF-1 cells, pretreated 2 h, MOI 2.5, 48 h in continuous presence
LIMK1 = LIMK1 (Homo sapiens, UniProt P53667); test: Kinase profiling (Reaction Biology): LIMK1
ABL1 = ABL1 (Homo sapiens, UniProt P00519); test: Kinase profiling (Reaction Biology): ABL1
CK1d = CK1d (Homo sapiens, UniProt P48730); test: Kinase profiling (Reaction Biology): CK1d
CD4 = test: Surface staining of CD4 on CEM-SS T cells; type: cell-based, human; conditions: 100 μM
ALK = ALK (Homo sapiens, UniProt Q9UM73); test: Kinase profiling (Reaction Biology): ALK
c-Src = c-Src (Homo sapiens, UniProt P12931); test: Kinase profiling (Reaction Biology): c-Src
DAPK1 = DAPK1 (Homo sapiens, UniProt P53355); test: Kinase profiling (Reaction Biology): DAPK1
HIV-1(Vpr-β-lactamase) = test: BlaM-Vpr-based viral entry assay; type: cell-based; conditions: 100 μM; CEM-SS T cells

ROCK2, sequence (O75116 whole entry): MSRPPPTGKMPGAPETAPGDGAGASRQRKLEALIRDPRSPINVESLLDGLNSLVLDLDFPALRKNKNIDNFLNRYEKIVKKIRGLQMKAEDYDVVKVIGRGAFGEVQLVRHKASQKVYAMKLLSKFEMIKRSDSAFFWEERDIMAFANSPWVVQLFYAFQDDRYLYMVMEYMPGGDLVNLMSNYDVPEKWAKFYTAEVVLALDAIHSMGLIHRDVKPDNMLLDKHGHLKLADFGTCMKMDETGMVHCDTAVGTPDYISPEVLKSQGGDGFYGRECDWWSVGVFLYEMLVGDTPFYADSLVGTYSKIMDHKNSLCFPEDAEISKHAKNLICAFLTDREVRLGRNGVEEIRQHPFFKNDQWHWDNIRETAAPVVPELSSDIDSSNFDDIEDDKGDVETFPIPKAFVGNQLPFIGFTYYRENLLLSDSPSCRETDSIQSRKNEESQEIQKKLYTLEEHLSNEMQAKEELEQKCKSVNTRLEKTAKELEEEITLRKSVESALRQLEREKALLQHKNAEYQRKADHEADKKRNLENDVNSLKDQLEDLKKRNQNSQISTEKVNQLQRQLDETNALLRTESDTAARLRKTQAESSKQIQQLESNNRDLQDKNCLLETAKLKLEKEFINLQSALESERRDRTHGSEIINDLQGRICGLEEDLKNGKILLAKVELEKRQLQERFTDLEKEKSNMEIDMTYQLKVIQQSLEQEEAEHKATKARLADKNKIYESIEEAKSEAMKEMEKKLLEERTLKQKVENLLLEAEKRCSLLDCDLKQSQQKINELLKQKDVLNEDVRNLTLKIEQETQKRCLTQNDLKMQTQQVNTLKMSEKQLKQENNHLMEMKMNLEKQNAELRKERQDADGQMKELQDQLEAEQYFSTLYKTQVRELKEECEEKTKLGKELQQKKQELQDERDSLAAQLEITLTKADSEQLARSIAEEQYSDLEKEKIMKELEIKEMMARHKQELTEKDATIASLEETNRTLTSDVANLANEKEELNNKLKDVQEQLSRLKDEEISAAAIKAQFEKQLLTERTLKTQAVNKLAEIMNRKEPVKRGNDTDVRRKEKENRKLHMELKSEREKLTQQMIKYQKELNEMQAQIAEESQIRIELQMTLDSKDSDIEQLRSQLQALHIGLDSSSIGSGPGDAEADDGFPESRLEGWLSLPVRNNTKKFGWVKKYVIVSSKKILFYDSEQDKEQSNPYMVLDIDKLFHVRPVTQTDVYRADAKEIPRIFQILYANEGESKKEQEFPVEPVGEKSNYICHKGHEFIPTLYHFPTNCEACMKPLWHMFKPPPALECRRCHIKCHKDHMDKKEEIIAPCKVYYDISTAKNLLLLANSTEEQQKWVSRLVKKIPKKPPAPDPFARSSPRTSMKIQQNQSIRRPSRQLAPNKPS
RSK1, sequence (Q15418 whole entry): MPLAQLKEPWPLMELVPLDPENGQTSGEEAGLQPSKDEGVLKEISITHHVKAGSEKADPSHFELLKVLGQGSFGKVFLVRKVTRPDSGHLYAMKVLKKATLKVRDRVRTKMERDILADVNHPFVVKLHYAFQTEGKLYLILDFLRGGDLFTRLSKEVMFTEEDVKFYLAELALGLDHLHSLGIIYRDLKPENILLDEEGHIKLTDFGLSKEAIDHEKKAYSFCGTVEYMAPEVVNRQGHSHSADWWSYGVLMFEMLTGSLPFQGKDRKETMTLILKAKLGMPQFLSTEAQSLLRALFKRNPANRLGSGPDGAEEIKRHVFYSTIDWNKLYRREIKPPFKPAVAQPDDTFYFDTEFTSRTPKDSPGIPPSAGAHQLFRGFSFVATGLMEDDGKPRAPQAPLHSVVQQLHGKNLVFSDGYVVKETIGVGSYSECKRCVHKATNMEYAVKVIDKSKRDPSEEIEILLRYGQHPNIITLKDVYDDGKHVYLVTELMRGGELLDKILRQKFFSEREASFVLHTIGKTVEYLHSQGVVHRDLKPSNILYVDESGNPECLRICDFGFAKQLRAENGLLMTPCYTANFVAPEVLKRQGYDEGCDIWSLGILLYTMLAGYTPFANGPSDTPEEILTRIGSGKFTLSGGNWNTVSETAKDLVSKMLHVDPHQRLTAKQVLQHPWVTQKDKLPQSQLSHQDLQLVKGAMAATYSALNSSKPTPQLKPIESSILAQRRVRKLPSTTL
DAPK1, sequence (P53355 whole entry): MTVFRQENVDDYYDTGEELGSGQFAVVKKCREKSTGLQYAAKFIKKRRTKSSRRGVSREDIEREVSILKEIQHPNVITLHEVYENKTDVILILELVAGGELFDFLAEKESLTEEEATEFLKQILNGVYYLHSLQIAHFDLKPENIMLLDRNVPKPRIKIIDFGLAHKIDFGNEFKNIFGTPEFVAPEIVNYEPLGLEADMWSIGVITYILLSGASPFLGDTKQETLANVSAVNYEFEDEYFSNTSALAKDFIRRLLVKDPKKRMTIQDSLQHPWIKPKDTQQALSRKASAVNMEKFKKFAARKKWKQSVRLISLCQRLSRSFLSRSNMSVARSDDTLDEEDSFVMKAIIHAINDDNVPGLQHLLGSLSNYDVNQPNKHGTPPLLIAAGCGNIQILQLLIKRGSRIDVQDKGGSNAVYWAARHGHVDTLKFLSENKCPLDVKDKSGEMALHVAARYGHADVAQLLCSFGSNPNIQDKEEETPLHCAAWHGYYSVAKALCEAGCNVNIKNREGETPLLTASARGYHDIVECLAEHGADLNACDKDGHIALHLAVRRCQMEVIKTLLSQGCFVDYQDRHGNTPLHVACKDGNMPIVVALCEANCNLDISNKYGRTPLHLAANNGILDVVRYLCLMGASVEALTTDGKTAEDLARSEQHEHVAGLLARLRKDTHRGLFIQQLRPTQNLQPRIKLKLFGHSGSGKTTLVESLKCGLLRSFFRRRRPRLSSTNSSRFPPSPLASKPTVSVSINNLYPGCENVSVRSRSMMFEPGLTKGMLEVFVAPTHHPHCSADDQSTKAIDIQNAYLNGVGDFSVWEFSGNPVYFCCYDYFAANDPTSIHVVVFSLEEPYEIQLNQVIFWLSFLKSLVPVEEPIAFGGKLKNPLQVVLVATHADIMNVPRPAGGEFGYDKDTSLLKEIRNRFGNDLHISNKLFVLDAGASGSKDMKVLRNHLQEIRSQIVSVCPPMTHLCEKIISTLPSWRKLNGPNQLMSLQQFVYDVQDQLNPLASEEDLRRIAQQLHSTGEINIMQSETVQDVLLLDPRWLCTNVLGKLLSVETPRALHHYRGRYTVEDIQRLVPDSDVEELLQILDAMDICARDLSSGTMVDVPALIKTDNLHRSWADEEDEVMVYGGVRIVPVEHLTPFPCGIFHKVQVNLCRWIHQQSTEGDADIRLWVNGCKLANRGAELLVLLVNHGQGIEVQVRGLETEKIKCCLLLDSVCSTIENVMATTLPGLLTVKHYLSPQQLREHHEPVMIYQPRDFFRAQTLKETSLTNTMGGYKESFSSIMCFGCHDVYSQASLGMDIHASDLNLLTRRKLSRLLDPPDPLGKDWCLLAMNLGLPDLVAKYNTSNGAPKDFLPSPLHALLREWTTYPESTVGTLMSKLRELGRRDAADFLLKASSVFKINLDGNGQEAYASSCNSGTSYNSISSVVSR
ALK, sequence (Q9UM73 19-1620): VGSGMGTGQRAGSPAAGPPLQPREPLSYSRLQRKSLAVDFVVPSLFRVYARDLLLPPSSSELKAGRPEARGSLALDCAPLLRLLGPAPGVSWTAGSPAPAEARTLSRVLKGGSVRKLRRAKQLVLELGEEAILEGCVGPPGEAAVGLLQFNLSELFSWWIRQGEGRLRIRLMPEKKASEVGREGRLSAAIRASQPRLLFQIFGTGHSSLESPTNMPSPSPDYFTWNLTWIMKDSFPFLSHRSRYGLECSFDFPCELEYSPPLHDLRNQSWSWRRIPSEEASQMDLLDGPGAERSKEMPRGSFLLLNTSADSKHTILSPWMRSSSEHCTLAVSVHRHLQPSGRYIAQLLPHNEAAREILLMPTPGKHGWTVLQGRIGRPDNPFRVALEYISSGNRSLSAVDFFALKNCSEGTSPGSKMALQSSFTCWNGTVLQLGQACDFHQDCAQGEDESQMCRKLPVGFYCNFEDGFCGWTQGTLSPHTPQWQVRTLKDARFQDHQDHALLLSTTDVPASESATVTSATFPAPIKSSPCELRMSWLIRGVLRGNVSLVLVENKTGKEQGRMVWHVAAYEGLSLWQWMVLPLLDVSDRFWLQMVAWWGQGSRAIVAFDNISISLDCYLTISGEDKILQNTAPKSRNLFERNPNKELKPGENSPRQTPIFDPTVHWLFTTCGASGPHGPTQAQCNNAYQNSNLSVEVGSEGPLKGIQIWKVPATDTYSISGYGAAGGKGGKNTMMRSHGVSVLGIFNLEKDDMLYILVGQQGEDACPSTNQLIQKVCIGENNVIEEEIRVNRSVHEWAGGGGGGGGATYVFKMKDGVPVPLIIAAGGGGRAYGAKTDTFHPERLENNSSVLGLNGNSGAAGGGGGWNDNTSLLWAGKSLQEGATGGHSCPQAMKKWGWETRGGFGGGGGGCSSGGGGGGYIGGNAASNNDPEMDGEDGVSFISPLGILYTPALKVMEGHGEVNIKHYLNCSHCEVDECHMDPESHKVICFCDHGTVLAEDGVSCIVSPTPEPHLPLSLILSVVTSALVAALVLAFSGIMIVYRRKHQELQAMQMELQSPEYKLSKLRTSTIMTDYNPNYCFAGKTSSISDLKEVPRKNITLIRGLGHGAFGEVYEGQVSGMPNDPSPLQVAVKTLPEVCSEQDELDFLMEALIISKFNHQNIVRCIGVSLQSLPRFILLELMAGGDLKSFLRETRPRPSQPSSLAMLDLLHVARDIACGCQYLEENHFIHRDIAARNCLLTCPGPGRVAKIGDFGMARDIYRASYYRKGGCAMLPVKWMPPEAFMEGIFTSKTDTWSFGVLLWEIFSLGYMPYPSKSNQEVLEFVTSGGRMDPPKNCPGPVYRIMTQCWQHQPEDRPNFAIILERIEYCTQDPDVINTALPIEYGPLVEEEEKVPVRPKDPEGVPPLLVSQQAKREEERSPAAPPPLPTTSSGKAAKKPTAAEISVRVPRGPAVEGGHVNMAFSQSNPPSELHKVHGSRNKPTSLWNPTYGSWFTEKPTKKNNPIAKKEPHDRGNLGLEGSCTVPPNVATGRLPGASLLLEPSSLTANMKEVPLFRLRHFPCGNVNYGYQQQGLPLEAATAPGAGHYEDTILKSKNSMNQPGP

## COC(=O)c1ccc2[nH]c(C3CCN(c4ncnc5[nH]cc(Cl)c45)CC3)nc2c1 [Compound R10015, Methyl 2-(1-(5-chloro-7H-pyrrolo[2,3-d]pyrimidin-4-yl)piperidin-4-yl)-1H-benzo[d]imidazole-5-carboxylate]
Resting CD4 T cells
  SDF-1-mediated actin polymerization: markedly depressed
IGF1R
  activity at 1 µM: 90%
HIV-1(NL4-3)
  IC50: 14.9 µM
WEE1
  activity at 1 µM: 97.2%
MEK1
  activity at 1 µM: 75.6%
Rev-CEM-GFP-Luc cells
  cytotoxicity: no detectable cytotoxicity
BTK
  activity at 1 µM: 90.2%
[1]
  virion release from HIV DNA-transfected HEK293 cells: inhibited
HIV-1(Env)
  p24 release (virion release): inhibited
RSK1
  activity at 1 µM: 47.2%
HIV-1(Nef-luciferase)
  viral entry, HIV-1(Nef-luciferase): did not significantly inhibit
Phosphorylation of PAK2
  phosphorylation of PAK2: not affected
Vero cells
  drug toxicity: No drug toxicity
HIV-1(VSV G)
  inhibition of early steps of VSV G-pseudotyped HIV: minimally inhibited
STK33
  activity at 1 µM: 56.5%
CK2a
  activity at 1 µM: 94.2%
EGFR
  activity at 1 µM: 93.2%
ROCK2
  activity at 1 µM: 29.5%
ROCK2; read-out: inhibition of ROCK2
  inhibition at 1 µM: ~70%
NEK1
  activity at 1 µM: 67.2%
BRAF
  activity at 1 µM: 91.9%
Jurkat T cells
  IC50: ~10 µM
AKT2
  activity at 1 µM: 73.1%
RET
  activity at 1 µM: 46.5%
TAK1
  activity at 1 µM: 82.4%
RVFV-Luc (MP12)
  IC50: ~12.5 µM
HSV-1
  inhibition of HSV-1 (viral plaques): inhibition
JNK3
  activity at 1 µM: 85.7%
TLK1
  activity at 1 µM: 98.5%
EBOV (Zaire)
  inhibition of EBOV: dose-dependent inhibition
LIMK1
  activity at 1 µM: 6.4%
ABL1
  activity at 1 µM: 89.2%
CK1d
  activity at 1 µM: 85%
CD4; 1 h
  surface expression of CD4: did not alter
CD4; prolonged treatment 4 h
  surface density of CD4: slightly decreased
ALK
  activity at 1 µM: 95.5%
c-Src
  activity at 1 µM: 92.4%
DAPK1
  activity at 1 µM: 87.8%
HIV-1(Vpr-β-lactamase)
  viral entry, HIV-1(Vpr-β-lactamase): did not significantly inhibit
